Experimental data from patent US20210024498A1, “TETRAHYDROPYRROLE COMPOUND, PREPARATION METHOD THEREFOR, PHARMACEUTICAL COMPOSITION CONTAINING SAME, AND USE THEREOF” (MEDICONNS (SHANGHAI) BIOPHARMACEUTICAL CO., LTD, priority 2017, published 2021).

Assays:
[1] = target: T1, D2 receptor (Homo sapiens, UniProt P14416); experiment: D2 receptor affinity assay (radioligand competition, 3H-7-OH-DPAT); type: binding; settings: cloned D2 receptor expressed in HEK293 cell line; 3H-7-OH-DPAT 1 nM
T1 construct: expressed in transfected cells; host or cells: HEK293
Protocol: (§1) Bioactivity Test • I. D2 receptor affinity assay: The affinity of the compound to D2 receptor was determined by radioligand competition assay, and the cloned D2 receptor was expressed in HEK293 cell line. • II. D2 receptor function assay: The ability of the compound to antagonize the D2 receptor was determined using a calcium mobilization assay (FLIPR). • III. DAT receptor function assay: The ability of the compound to inhibit DAT was determined by neurotransmitter transporter absorption assay.
• Experimental buffer: 50 mM Tris-HCl, pH 7.4, 5 mM MgCl2 • Washing buffer: 50 mM Tris-HCl pH 7.4, stored at 4° C. ready for use.
• The compound and positive control 7-OH-DPAT were serially diluted with DMSO, with the initial concentration of 2 mM and 4 times serial dilution, a total of 10 concentrations. 1 μL was transferred to the designated position of the 96-well plate. • 1 μL droperidol (final concentration 10 μM) was added to the positive control well. 1 μL DMSO was added to the negative control well.
• Receptor cell membrane was diluted to 10 μg/well with corresponding experimental buffer, with 100 μL cell membrane/well.
• 3H-7-OH-DPAT was diluted to 2 nM with corresponding experimental buffer, and the final concentration was 1 nM.
• After 100 μL of cell membrane and isotope were added, respectively, the reaction plate of the D2 receptor was incubated at room temperature for 1 hour. The GF/C filter plate was soaked in 0.3% PEI solution for more than half an hour. After the reaction was completed, the cell membrane was collected on the GF/C filter plate using the […], washed 4 times with cold washing buffer, and then dried in an oven at 50° C. for 1 hour. The dried GF/C filter plate was sealed at the bottom, 50 μL of scintillation fluid was added to each well and the well was sealed. Reads were obtained by MicroBeta and the data was analyzed using GraphPad Prism 5.0.
Ki=IC50/(1+isotope concentration/Kd)

[2] = target: DAT (Homo sapiens, UniProt Q01959); experiment: DAT transporter assay (neurotransmitter transporter absorption assay); type: cell-based
Protocol: as §1
• HBSS1×, REPES 20 mM, BSA 0.1%.
• Lyophilized fluorescent dye 1 vial, Assay buffer 10 mL.
• BTCP—hydrochloride (Sigma)
• i) The medium was preheated in 37° C. water bath in advance for more than 30 minutes for later use. • j) The preheated medium was taken out, disinfected with 75% alcohol, and put into a biosafety cabinet. • k) The cultured cells were taken out from the […], and the medium was removed by a vacuum pump. 1× DPBS was added, incubated for a moment, and then removed by a vacuum pump. Appropriate amount of 0.05% trypsin-EDTA was added for cell digestion. The digestion was terminated by 10% FBS medium, and the cells were pipetted and dispersed. • l) The dispersed cells were transferred into a 50 mL centrifuge tube with a pipette.
• a) The reference compound was diluted in a ratio of 1:3 to 10 concentration gradients with the detection buffer containing 0.1% BSA, with the highest concentration being 2 μM. The compound to be tested was diluted to 20 uM with the detection buffer containing 0.1% BSA. • b) A centrifuge (750 rpm, 15 s) was used to spin off the culture solution in the cell culture plate, and the compound solution in step 1 was transferred to the cell culture plate (25 uL/well). • HC (High control): 25 μL of 0.1% BSA detection buffer containing 0.2% DMSO. • LC (Low control): 25 μL of solution containing 2 μM positive antagonist. • c) After centrifugation at 300 rpm for 15 seconds, the plate was incubated at 37° C. for 30 minutes. After the incubation with the compound was completed, a dye solution (25 μL/well) was added and incubated at 37° C. for 30 minutes.
Inhibitor % activity=100−(signal value per well−average value for LC well)/(average value for H well−average value for LC well)*100%.

[3] = target: T1, D2 receptor; experiment: D2 receptor function assay, calcium mobilization (FLIPR); type: cell-based; settings: HEK293, antagonism of D2 receptor
Protocol: as §1
• Cell line: HEK293 • DMEM medium (Invitrogen) • Fetal bovine serum (FBS, Invitrogen) • L-Glutamine (Invitrogen) G418 (Invitrogen) • Blasticidin (Invitrogen)
• Fluo-4 Direct Kit (Invitrogen)
• 250 mM Probenecid solution was formulated: according to the kit instructions, 1 mL of FLIPR buffer salt solution was added to 77 mg probenecid just before needed. • 2× (8 μM) Fluo-4 Direct™ loading buffer was formulated: the number of tubes in Fluo-4 Direct™ needed for the experiment was melted in advance. Just before needed, 10 ml of FLIPR buffer salt solution and 0.2 mL of 250 mM Probenecid solution were added to each tube and vortexed in dark for more than 5 minutes.
• a) One tube of cells was taken from the liquid nitrogen tank and quickly thawed in 37° C. water bath. • b) The cell suspension was added to a centrifuge tube to which the preheated 20 ml medium was added in advance. • c) The centrifuge tube was centrifuged at 1000 rpm for 5 minutes at room temperature. • d) The supernatant was slowly decanted to avoid affecting the precipitated cells. • e) The cells were resuspended with 10-30 ml medium by pipetting the cells gently with a pipette. • f) The viability and number of cells were calculated with the cell counter. • g) The cells were diluted to 1×10^5 cells/ml with medium, and inoculated in the 384-well polylysine coated cell plate at 20 μL/well. • h) The plate was incubated in an incubator at 5% CO2, 37° C. for 16 to 20 hours.
10 μL of experimental buffer salt solution was added into the cell plate according to the set program, and the fluorescence signal was read. 10 μL of agonist reference compound was further added at a given concentration to the cell plate and the fluorescence signal was read. After reading, the data was derived by “Max-Min” and “Read 90 to Maximum Allowed” methods in the software and EC80 of the corresponding cell line was calculated, and the reference compound with a concentration of 6× EC80 was prepared. • f) The FLIPR instrument software was run. 10 μL of the compound to be tested and the reference compound at a given concentration were added into the cell plate according to the set program, and the fluorescence signal was read. 10 μL of reference compound agonist was further added at a concentration of 6× EC80 to the cell plate and the fluorescence signal was read. • g) Data Analysis • Calculation formula for data in the project:
Inhibitor % activity=100−(signal value per well−average value for high dose control group of inhibitor)/(average value for DMSO control group−average value for high dose control group of inhibitor)*100%.

[4] = system: Amphetamine-induced high locomotor activity in mice; experiment: Amphetamine-induced high locomotor activity (LMA) in mice; type: in vivo; design: Distance resulting from the activity, First 30 min / Distance resulting from the activity, Last 30 min: unit not given here; settings: Amphetamine 1.0 mg/kg s.c.; 5 mg/kg p.o. (low dose group; olanzapine positive control); male ICR mice
Protocol: The test compound MDC was a milky white powder and stored in a shade and cool place (formulated with 1% DMSO before use). […] Amphetamine, purchased from Sigma-Aldrich, was a white powder (formulated with normal saline before use). 1% DMSO was formulated by diluting pure DMSO (purity>99.5, purchased from Sigma) with normal saline.
(§2) Male ICR mice having weight 22±2 g were kept at 8 mice/cage with 12/12 hours light/dark cycle, temperature 23° C.±1° C., humidity 50% to 60%, free to eat and drink water.
The administration volume was 0.1 ml/10 g body weight; Amphetamine was freshly formulated with normal saline at a dose of 1.0 mg/kg and administered subcutaneously.
(§3) After one week of acclimation, mice were randomly divided into 6 groups according to their body weight: negative control group, model group, positive control group, and low dose group, medium dose group and high dose group for the test compound. 8-10 animals/group.
(§4) Group 1: Negative control group: Normal saline (s.c.)+1% DMSO (10.0 ml/kg, p.o.);
Group 2: Model group: Amphetamine (1.0 mg/kg, s.c.)+1% DMSO (10.0 ml/kg, p.o.);
Group 4: MDC low dose group: Amphetamine (1.0 mg/kg, s.c.)+MDC (5 mg/kg, p.o.);
Group 5: MDC medium dose group: Amphetamine (1.0 mg/kg, s.c.)+MDC (10 mg/kg, p.o.);
Group 6: MDC high dose group: Amphetamine (1.0 mg/kg, s.c.)+MDC (20 mg/kg, p.o.).
After administration, the animals were immediately placed in a locomotor activity box and recorded by Shanghai Jiliang animal video analysis system for 1 hour.
(§5) After the experiment, the activity of the animals within 1 hour was analyzed using the trajectory analysis software of Shanghai Jiliang animal video analysis system to obtain the total distance resulting from the activity.

[5] = system: PCP-induced high locomotor activity in mice; experiment: Phencyclidine (PCP) induced high locomotor activity (LMA) in mice; type: in vivo; design: Distance resulting from the activity, First 30 min / Distance resulting from the activity, Last 30 min: unit not given here; settings: PCP 5.0 mg/kg s.c.; 5 mg/kg p.o. (low dose group; olanzapine positive control); male ICR mice
Description: • 1. The effect of the compound on phencyclidine (PCP) induced high locomotor activity (LMA) in mice was detected.
The test compound MDC was milky white powder and stored in a shade and cool place (freshly formulated with 1% DMSO before use). […] Phencyclidine (PCP), purchased from Sigma Aldrich, was a grayish white powder (freshly formulated with normal saline before use). 1% DMSO was formulated by diluting pure DMSO (purity>99.5, purchased from Sigma-Aldrich) with normal saline.
as §2
The administration volume was 0.1 ml/10 g body weight; PCP was formulated with normal saline at a dose of 5 mg/kg.
The test compound MDC and olanzapine were administered by gavage and PCP was administered by subcutaneous injection.
as §3, §4
Group 2: Model group: PCP (5.0 mg/kg, s.c.)+1% DMSO (10.0 ml/kg, p.o.);
Group 4: MDC low dose group: PCP (5.0 mg/kg, s.c.)+MDC (5 mg/kg, p.o.);
Group 5: MDC medium dose group: PCP (5.0 mg/kg, s.c.)+MDC (10 mg/kg, p.o.);
Group 6: MDC high dose group: PCP (5.0 mg/kg, s.c.)+MDC (20 mg/kg, p.o.).
After oral administration, the animals were immediately placed in a locomotor activity box and recorded by Shanghai Jiliang ( ? ) animal video analysis system for 1 hour.
as §5

[6] = target: T2, D4 receptor (Homo sapiens, UniProt P21917); settings: Bioorg. Med. Chem. 17 (2009) 1716-1723; cited from earlier work
T2 sequence (P21917 1-419): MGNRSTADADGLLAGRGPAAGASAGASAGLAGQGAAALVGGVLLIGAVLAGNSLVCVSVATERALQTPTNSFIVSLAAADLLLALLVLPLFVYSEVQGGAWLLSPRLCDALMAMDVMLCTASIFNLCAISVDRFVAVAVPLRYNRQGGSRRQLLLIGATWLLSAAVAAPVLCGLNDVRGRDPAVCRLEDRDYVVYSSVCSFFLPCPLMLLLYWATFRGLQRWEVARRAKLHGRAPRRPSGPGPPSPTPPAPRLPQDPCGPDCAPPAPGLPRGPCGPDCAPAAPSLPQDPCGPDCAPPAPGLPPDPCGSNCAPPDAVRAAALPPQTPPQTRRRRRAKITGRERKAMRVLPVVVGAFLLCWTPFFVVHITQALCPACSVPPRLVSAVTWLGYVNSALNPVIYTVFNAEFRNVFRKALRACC

[7] = target: T1, D2 receptor; settings: Bioorg. Med. Chem. 17 (2009) 1716-1723; cited from earlier work

Chain of DAT (Q01959 whole entry, species assumed): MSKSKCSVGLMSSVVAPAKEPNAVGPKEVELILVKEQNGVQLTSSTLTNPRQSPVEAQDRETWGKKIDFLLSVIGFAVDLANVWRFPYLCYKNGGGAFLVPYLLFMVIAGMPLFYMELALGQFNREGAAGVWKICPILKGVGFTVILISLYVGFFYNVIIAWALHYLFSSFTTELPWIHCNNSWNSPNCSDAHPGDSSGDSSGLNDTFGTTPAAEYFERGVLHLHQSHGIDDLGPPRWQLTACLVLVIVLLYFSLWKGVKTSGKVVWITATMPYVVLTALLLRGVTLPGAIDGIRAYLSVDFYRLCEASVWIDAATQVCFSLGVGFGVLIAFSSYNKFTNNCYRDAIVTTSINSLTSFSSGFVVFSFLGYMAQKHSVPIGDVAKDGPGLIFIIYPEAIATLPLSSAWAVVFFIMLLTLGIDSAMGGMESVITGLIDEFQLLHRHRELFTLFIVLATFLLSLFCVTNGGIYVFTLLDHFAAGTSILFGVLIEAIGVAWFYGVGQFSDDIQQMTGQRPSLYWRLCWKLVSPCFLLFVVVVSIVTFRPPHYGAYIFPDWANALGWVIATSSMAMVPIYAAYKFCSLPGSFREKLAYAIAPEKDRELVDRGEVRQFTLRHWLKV
T1 sequence (P14416 whole entry): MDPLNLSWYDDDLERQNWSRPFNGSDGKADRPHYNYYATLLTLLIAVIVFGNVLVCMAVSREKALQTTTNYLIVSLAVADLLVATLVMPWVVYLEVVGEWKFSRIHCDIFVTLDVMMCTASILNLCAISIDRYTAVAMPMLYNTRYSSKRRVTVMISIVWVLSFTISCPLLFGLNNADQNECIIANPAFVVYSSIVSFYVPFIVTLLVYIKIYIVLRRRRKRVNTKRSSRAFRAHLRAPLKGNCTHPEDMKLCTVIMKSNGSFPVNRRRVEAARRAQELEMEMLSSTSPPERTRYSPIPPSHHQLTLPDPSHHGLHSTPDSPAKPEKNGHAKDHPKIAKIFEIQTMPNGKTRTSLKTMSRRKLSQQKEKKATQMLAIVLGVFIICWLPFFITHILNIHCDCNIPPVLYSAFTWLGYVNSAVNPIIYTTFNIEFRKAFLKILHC

IC50 [2]	SMILES	IC50 [1]	IC50 [3]	further results
0.191 µM	c1ccc2c(CN3CCC(c4ccc5nc[nH]c5c4)C3)c[nH]c2c1 (stereo not shown) [MDC-161502-037]	0.461 µM	0.269 µM	
0.0528 µM	c1ccc2c(CN3CCC(c4ccc5[nH]nnc5c4)C3)c[nH]c2c1 (stereo not shown) [MDC-161502-040]			
	Cc1cc2c(s1)Nc1ccccc1N=C2N1CCN(C)CC1 [Olanzapine, olanzapine, reference compound]			Distance resulting from the activity, First 30 min [4]: 227653; Distance resulting from the activity, Last 30 min [4]: 158673; Distance resulting from the activity, First 30 min [5]: 208491; Distance resulting from the activity, Last 30 min [5]: 80518
0.0875 µM	c1ccc2c(CN3CCC(c4cccc5[nH]ncc45)C3)c[nH]c2c1 (stereo not shown) [MDC-161502-038]	0.0102 µM	0.00622 µM	
0.841 µM	c1ccc2c(CN3CCC(c4ccc5cn[nH]c5c4)C3)c[nH]c2c1 (stereo not shown) [MDC-161502-036]	0.298 µM	0.471 µM	
	OC1(c2ccc(Cl)cc2)CCN(Cc2c[nH]c3ccccc23)C1 (stereo not shown) [compound 4]			D4 receptor antagonism (in words) [6]: moderate intensity of D4 receptor antagonism; Antagonism to D2 receptor (in words) [7]: substantially no antagonism to D2 receptor

SMILES	IC50 [2]	IC50 [1]	IC50 [3]	further results
Oc1cccc(C2CCN(Cc3n[nH]c4ccccc34)C2)c1 (stereo not shown) [MDC-161502-033]	0.111 µM	0.00683 µM	0.00228 µM	
Oc1cc(C2CCN(Cc3c[nH]c4ccccc34)C2)ccc1F (stereo not shown) [MDC-161502-031]	0.0283 µM	0.0224 µM	0.0145 µM	
Oc1cccc(C2CCN(Cc3c[nH]c4ncccc34)C2)c1 (stereo not shown) [MDC-161502-034]	0.685 µM	0.00202 µM	0.00199 µM	
